Broadly, the inhibition is the share of the control response that was lost under treatment. In general, IC50 refers to the point on the concentration scale where inhibition reaches its midpoint. A high value points to lower potency.

This note sets out measurements from ChEMBL document CHEMBL5325496, “Discovery, SAR Study of GST Inhibitors from a Novel Quinazolin-4(1H)-one Focused DNA-Encoded Library” (J Med Chem, 2023).

Each structure is given as a SMILES string.

The species entered for experiment [1] is Homo sapiens. The experiment in a line: Inhibition of glutathione S-transferase (unknown origin) using CDNB as substrate at 50 uM by spectrophotometric analysis relative to control.
In experiment [2] the target is T1, Glutathione S-transferase Mu 2 (Homo sapiens, UniProt P28161).
T1 sequence (P28161 whole entry): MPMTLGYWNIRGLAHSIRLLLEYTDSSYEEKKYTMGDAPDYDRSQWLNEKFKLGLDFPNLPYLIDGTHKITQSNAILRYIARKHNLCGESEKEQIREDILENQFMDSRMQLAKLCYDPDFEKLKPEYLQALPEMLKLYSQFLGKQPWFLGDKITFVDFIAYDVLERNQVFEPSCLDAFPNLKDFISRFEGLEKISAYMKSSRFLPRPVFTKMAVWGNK
Description: Inhibition of human GSTM2 by spectrophotometric analysis.

Experiment [3] concerns the target T2, Glutathione-S-transferase (Schistosoma japonicum, UniProt Q26513).
T2 sequence (Q26513 whole entry): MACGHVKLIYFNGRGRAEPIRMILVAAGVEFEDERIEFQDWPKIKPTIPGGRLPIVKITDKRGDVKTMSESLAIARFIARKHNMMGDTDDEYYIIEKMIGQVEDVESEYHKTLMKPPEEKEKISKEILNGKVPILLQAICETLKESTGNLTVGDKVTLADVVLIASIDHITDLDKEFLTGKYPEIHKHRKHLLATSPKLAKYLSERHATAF
The experiment in a line: Inhibition of Schistosoma japonicum GST by spectrophotometric analysis.

In the case of `CCOC(=O)CCn1c(-c2ccc(Cl)s2)nc2ccc(-c3ccccc3-c3nn[nH]n3)cc2c1=O`, in experiment [1], the inhibition is 87.5%.
The compound `O=C(O)CCn1c(-c2ccc(Cl)s2)nc2ccc(-c3ccccc3-c3nn[nH]n3)cc2c1=O` came in with an inhibition in experiment [1] of 87.3%. Moreover, the IC50 amounted to 2.4 µM in experiment [2] and 9.47 µM in experiment [3].
With `COC(=O)c1ccccc1-c1ccc2nc(-c3ccc(Cl)s3)n(Cc3ccc(Cl)cc3)c(=O)c2c1`, the inhibition in experiment [1] was found to be 24.8%.
As to `O=c1c2cc(Br)ccc2nc(-c2ccc(Cl)s2)n1Cc1ccc(Cl)cc1`, the inhibition in experiment [1] was determined as 20.2%.
Consider `C=C(CC)C(=O)c1ccc(OCC(=O)O)c(Cl)c1Cl` [ETHACRYNIC ACID], for which the 50% inhibitory concentration (IC50) in experiment [2] was > 20 µM; in experiment [3], 1.84 µM.
Compound `CS(=O)(=O)c1ccccc1-c1ccc2nc(-c3ccc(Cl)s3)n(Cc3ccc(Cl)cc3)c(=O)c2c1` returned an inhibition in experiment [1] of 12.9%.
`NC(=O)c1cccc(-c2ccc3nc(-c4ccc(Cl)s4)n(Cc4ccc(Cl)cc4)c(=O)c3c2)c1` displayed an inhibition in experiment [1] of 24.6%.
Compound `O=c1c2cc(-c3ccccc3-c3nn[nH]n3)ccc2ncn1Cc1ccc(Cl)cc1` gave an inhibition in experiment [1] of 20.3%.
The compound `O=C(O)c1ccccc1-c1ccc2nc(-c3ccc(Cl)s3)n(Cc3ccc(Cl)cc3)c(=O)c2c1` showed an inhibition in experiment [1] of 78.7%. The concentration for half-maximal inhibition (IC50) in experiment [2] was > 20 µM; in experiment [3] it was 16.6 µM.
Compound `O=c1c2cc(-c3ccccc3-c3nn[nH]n3)ccc2nc(-c2ccc(Cl)s2)n1Cc1ccc(Cl)cc1` yielded an inhibition in experiment [1] of 92.5%. For the same compound, the concentration for half-maximal inhibition (IC50) in experiment [2] was found to be 4.03 µM; in experiment [3], 5.46 µM.
`O=c1c2cc(-c3ccccc3-c3nn[nH]n3)ccc2nc(-c2cccc(Cl)c2)n1Cc1ccc(Cl)cc1` registered an inhibition in experiment [1] of 45.8%.
As to `O=c1c2cc(-c3ccccc3-c3nn[nH]n3)ccc2nc(-c2ccc(Cl)s2)n1Cc1ccccc1`, the inhibition in experiment [1] was found to be 83.6%. The values for the half-maximal inhibitory concentration (IC50) in experiment [2] and in experiment [3] were 3.38 µM and 8.86 µM, respectively.
Regarding `Cn1nccc1-c1nc2ccc(-c3ccccc3-c3nn[nH]n3)cc2c(=O)n1Cc1ccc(Cl)cc1`, in experiment [1], the inhibition was 65.3%.
On to `O=c1c2cc(-c3ccccc3-c3nn[nH]n3)ccc2nc(-c2cccs2)n1Cc1ccc(Cl)cc1`, for which, in experiment [1], the inhibition is 89%. Moreover, the half-maximal inhibitory concentration (IC50) was determined as 6.15 µM in experiment [2] and 4.26 µM in experiment [3].
In experiment [1], `O=c1c2cc(-c3ccccc3-c3nn[nH]n3)ccc2nc(-c2ccc(Cl)s2)n1CCc1ccc(Cl)cc1` showed an inhibition of 90.8%.
As for `O=C(O)C(Cc1ccc(Cl)cc1)Cn1c(-c2ccc(Cl)s2)nc2ccc(-c3ccccc3-c3nn[nH]n3)cc2c1=O` (stereo not drawn), in experiment [1], the inhibition turned out to be 98.8%. The values for the half-maximal inhibitory concentration (IC50) in experiment [2] and in experiment [3] were 2.02 µM and 1.55 µM, respectively.
Take `O=C(O)c1cc(-c2ccc3nc(-c4ccc(Cl)s4)n(Cc4ccc(Cl)cc4)c(=O)c3c2)ccc1F`: in experiment [1], the inhibition came to 54.4%.
In turn, `O=C(O)CCCn1c(-c2ccc(Cl)s2)nc2ccc(-c3ccccc3-c3nn[nH]n3)cc2c1=O` had an inhibition in experiment [1] of 76.6%.
Regarding `COc1cc(/C=C/C(=O)CC(=O)/C=C/c2ccc(O)c(OC)c2)ccc1O` [CURCUMIN], the IC50 in experiment [2] was 1.81 µM. This counts as single-digit micromolar.
In experiment [1], `O=C(O)c1cccc(-c2ccc3nc(-c4ccc(Cl)s4)n(Cc4ccc(Cl)cc4)c(=O)c3c2)c1` showed an inhibition of 55.6%.
